We go through 20 compounds from ChEMBL document CHEMBL4138080, “Improved synthesis and comparative analysis of the tool properties of new and existing D-ring modified (S)-blebbistatin analogs” (Eur J Med Chem, 2017).

≈ marks a conversion by molar mass, not a printed value. Bounds are passed on as bounds.

Data set [1] is described as follows: Inhibition of rabbit full length skeletal muscle myosin 2 ATPase activity using Pre-formed rabbit skeletal muscle F-actin filaments and ATP incubated for 1 hr by CytoPhos reagent based ATPase assay. Set-up: species or system Oryctolagus cuniculus.
The species entered for a further data set is Oryctolagus cuniculus. Kind of data set: Potency index, ratio of (S)-blebbistatin (S)-1 IC50 to compound IC50 for inhibition of rabbit full length skeletal muscle myosin 2 ATPase activity by CytoPhos reagent based ATPase assay.
Data set [2] in a line: Aqueous solubility at steady-state in pH 7.4 PBS at 200 uM after 24 hrs by HPLC method. It counts as physicochemical. The conditions noted are these: for solubility at 24 h, 200 µM: PBS, pH 7.4.
Data set [3] is described as follows: Apparent permeability from apical to basolateral side in human Caco2 cells at 10 uM after 60 mins by HPLC-MS/MS analysis. It is filed as ADME, cell-based. The following applies: Caco-2.
Data set [4] can be described thus: Apparent permeability from basolateral to apical side in human Caco2 cells at 10 uM after 40 mins by HPLC-MS/MS analysis. It counts as ADME, cell-based. The conditions noted are these: Caco-2.
Data set [5] in a line: Apparent permeability from apical to basolateral side in human Caco2 cells assessed as drug recovery at 10 uM after 60 mins by HPLC-MS/MS analysis. The following applies: Caco-2, read-out: Drug recovery. It counts as ADME, cell-based.
A short description of data set [6]: Apparent permeability from basolateral to apical side in human Caco2 cells assessed as drug recovery at 10 uM after 40 mins by HPLC-MS/MS analysis. It is filed as ADME, cell-based. The conditions noted are these: Caco-2, read-out: Drug recovery.
Data set [7] can be described thus: Photostability of the compound in PBS/MeOH at 20 uM under blue light irradiation at 488 nm assessed as compound degradation after 30 mins by fluorescence spectroscopic analysis. The conditions noted are these: buffer, 0.5 h. It is filed as physicochemical.
Data set [8] is described as follows: Photostability of the compound in DMSO alone solvent assessed as compound degradation at 100 to 600 uM under irradiation at 390 to 470 nm up to 90 mins by HPLC analysis. It is filed as physicochemical. The following applies: 1.5 h.
Data set [9] in a line: Photostability of the compound in DMSO/H20 (1:1) solvent assessed as half life for compound degradation at 100 to 600 uM under irradiation at 390 to 470 nm by HPLC analysis. It is filed as physicochemical. The conditions noted are these: DMSO/H2O (1:1).
The nature of data set [10]: Photostability of the compound in DMSO/H20 (1:1) solvent assessed as compound degradation at 100 to 600 uM under irradiation at 390 to 470 nm after mins by HPLC analysis. It counts as physicochemical. The conditions noted are these: DMSO/H2O (1:1); read-out: Drug degradation.

With `Cc1ccc2c(c1)C(=O)[C@]1(O)CCN(c3ccccc3)C1=N2`, the IC50 in data set [1] was in the range of 0.873 to 2.16 µM. Further, the Ratio IC50 in the data set filed under Oryctolagus cuniculus is 1. The solubility in data set [2] (buffer, pH 7.4, 24 h, 200 µM) was found to be 6.18 µM (≈ 1.81 µg/mL). Moreover, the Papp A→B at 1 h, 10 µM in [3] came out at 60.5 ×10⁻⁶ cm/s. In addition, the Papp B→A at 40 min, 10 µM in [4] stood at 19.2 ×10⁻⁶ cm/s. Moreover, the recovery at 1 h, 10 µM in data set [5] was 66%. For the same compound, the recovery at 40 min, 10 µM in [6] turned out to be 66%. Besides, the Stability result in data set [7] and in data set [8] was “Stable” each time. In addition, the half-life at up to 600 µM in data set [9] was found to be 14 min.
In data set [1], `Cc1ccc2c(c1)C(=O)[C@]1(O)CCN(c3ccc4c(c3)NCC4)C1=N2` showed an IC50 of 7.7 µM. Also, in the data set filed under Oryctolagus cuniculus, the Ratio IC50 is 0.11.
As to `Cc1ccc2c(c1)C(=O)[C@]1(O)CCN(c3cccc(N)c3)C1=N2`, the Ratio IC50 in the data set filed under Oryctolagus cuniculus was 0.15. For the same compound, in [2], the solubility at 24 h, 200 µM came to 186 µM (≈ 57.2 µg/mL). In addition, the Papp A→B at 1 h, 10 µM in [3] was determined as 62.7 ×10⁻⁶ cm/s. Also, in data set [4], the Papp B→A at 40 min, 10 µM came to 26.2 ×10⁻⁶ cm/s. The recovery at 1 h, 10 µM in data set [5] came to 79%. Also, the recovery at 40 min, 10 µM in data set [6] was found to be 74%. In addition, the half-life at up to 600 µM in data set [9] came to 13 min.
Regarding `Cc1ccc2c(c1)C(=O)[C@]1(O)CCN(c3cccc(C#N)c3)C1=N2`, the Ratio IC50 in the data set filed under Oryctolagus cuniculus was 0.04.
In turn, `CCC(=O)Oc1cccc(N2CC[C@@]3(O)C(=O)c4cc(C)ccc4N=C23)c1` displayed a concentration for half-maximal inhibition (IC50) in data set [1] of 23.5 µM. Moreover, in the data set filed under Oryctolagus cuniculus, the Ratio IC50 amounted to 0.09.
Take `Cc1ccc2c(c1)C(=O)[C@]1(O)CCN(c3ccc4ccccc4c3)C1=N2`: the IC50 in [1] is above 40 µM. The Ratio IC50 in the data set listed under Oryctolagus cuniculus was below 0.02.
Consider `Cc1ccc2c(c1)C(=O)[C@]1(O)CCN(c3cccc(C(N)=O)c3)C1=N2`, for which the Ratio IC50 in the data set filed under Oryctolagus cuniculus was below 0.02.
In the case of `C=CC(=O)Nc1cccc(N2CC[C@@]3(O)C(=O)c4cc(C)ccc4N=C23)c1`, the IC50 in data set [1] is above 100 µM. Also, in the data set listed under Oryctolagus cuniculus, the Ratio IC50 was below 0.02.
As to `C=CCOc1ccc(N2CC[C@@]3(O)C(=O)c4cc(C)ccc4N=C23)cc1`, the IC50 in [1] turned out to be 0.38 µM. For the same compound, the Ratio IC50 in the data set listed under Oryctolagus cuniculus came to 2.3. The compound further came in with a solubility at 24 h, 200 µM in data set [2] of 2.75 µM (≈ 0.958 µg/mL). For the same compound, the Papp A→B at 1 h, 10 µM in data set [3] is 29.7 ×10⁻⁶ cm/s. Moreover, the Papp B→A at 40 min, 10 µM in data set [4] was determined as 7.58 ×10⁻⁶ cm/s. The recovery at 1 h, 10 µM in data set [5] came to 32%. In data set [6], the recovery at 40 min, 10 µM is 65%. Moreover, the half-life at up to 600 µM in data set [9] is 8.8 min.
`Cc1ccc2c(c1)C(=O)[C@]1(O)CCN(c3cccc(O)c3)C1=N2`: the Ratio IC50 in the data set filed under Oryctolagus cuniculus was 0.11. This compound also had a solubility at 24 h, 200 µM in data set [2] of 193 µM (≈ 59.5 µg/mL). Further, the Papp A→B at 1 h, 10 µM in data set [3] was found to be 28.5 ×10⁻⁶ cm/s. The Papp B→A at 40 min, 10 µM in [4] was 17.2 ×10⁻⁶ cm/s. The recovery at 1 h, 10 µM in [5] was 49%. For the same compound, the recovery at 40 min, 10 µM in [6] was found to be 70%. In data set [9], the half-life at up to 600 µM stood at 11 min.
Turning to `Cc1ccc2c(c1)C(=O)[C@]1(O)CCN(c3ccc([N+](=O)[O-])cc3)C1=N2`, the Ratio IC50 in the data set listed under Oryctolagus cuniculus worked out at 2.5. The compound also came in with a solubility at 24 h, 200 µM in data set [2] of 31.7 µM (≈ 10.7 µg/mL). Moreover, in data set [3], the Papp A→B at 1 h, 10 µM worked out at 32.5 ×10⁻⁶ cm/s. For the same compound, the Papp B→A at 40 min, 10 µM in [4] came to 2.23 ×10⁻⁶ cm/s. Besides, the recovery at 1 h, 10 µM in data set [5] came out at 34%. For the same compound, the recovery at 40 min, 10 µM in data set [6] came to 72%. Also, the half-life at up to 600 µM in data set [9] is above 90 min. Besides, the degraded at up to 600 µM in [10] stood at 33%.
As to `C=CCOc1cccc(N2CC[C@@]3(O)C(=O)c4cc(C)ccc4N=C23)c1`, in data set [1], half-maximal inhibition (IC50) was put at 9.41 µM. Also, the Ratio IC50 in the data set listed under Oryctolagus cuniculus came out at 0.23. In addition, the concentration in solution in data set [2] (solubility at 24 h, 200 µM) came to 2.83 µM (≈ 0.986 µg/mL). Further, the half-life at up to 600 µM in data set [9] is 15 min.
In the case of `C=CC(=O)Oc1cccc(N2CC[C@@]3(O)C(=O)c4cc(C)ccc4N=C23)c1`, in data set [1], it took 57.6 µM to reach half-maximal inhibition (IC50). The Ratio IC50 in the data set listed under Oryctolagus cuniculus came out at 0.04.
On to `Cc1ccc2c(c1)C(=O)[C@]1(O)CCN(c3cccc(C(=O)O)c3)C1=N2`, for which the Ratio IC50 in the data set listed under Oryctolagus cuniculus is below 0.02.
The compound `CCC(=O)Nc1cccc(N2CC[C@@]3(O)C(=O)c4cc(C)ccc4N=C23)c1` registered an IC50 in data set [1] above 100 µM. Besides, the Ratio IC50 in the data set filed under Oryctolagus cuniculus was below 0.02.
For `Cc1ccc2c(c1)C(=O)[C@]1(O)CCN(c3ccc(N)cc3)C1=N2`, in the data set listed under Oryctolagus cuniculus, the Ratio IC50 was 0.19. This compound yielded a solubility at 24 h, 200 µM in [2] above 200 µM. Besides, the Papp A→B at 1 h, 10 µM in data set [3] was 69.4 ×10⁻⁶ cm/s. For the same compound, the Papp B→A at 40 min, 10 µM in [4] was found to be 31.1 ×10⁻⁶ cm/s. Besides, the recovery at 1 h, 10 µM in [5] was found to be 85%. The recovery at 40 min, 10 µM in [6] is 82%. Moreover, the half-life at up to 600 µM in data set [9] was 44 min.
Take `C=CCN(CC=C)c1cccc(N2CC[C@@]3(O)C(=O)c4cc(C)ccc4N=C23)c1`: the IC50 in [1] is above 10.8 µM.
Consider `Cc1ccc2c(c1)C(=O)[C@]1(O)CCN(c3ccc(OCc4ccccc4)cc3)C1=N2`, for which the IC50 in data set [1] was above 40 µM. Moreover, the Ratio IC50 in the data set filed under Oryctolagus cuniculus is below 0.02.
`Cc1ccc2c(c1)C(=O)[C@]1(O)CCN(c3ccc(O)cc3)C1=N2`: the IC50 in data set [1] was determined as 5.47 µM. Besides, the Ratio IC50 in the data set filed under Oryctolagus cuniculus came to 0.16. Further, the concentration in solution in data set [2] (solubility at 24 h, 200 µM) was 82.4 µM (≈ 25.4 µg/mL). The half-life at up to 600 µM in data set [9] was determined as 4.7 min.
Compound `Cc1ccc2c(c1)C(=O)[C@]1(O)CCN(c3ccc4cc[nH]c4c3)C1=N2` had an IC50 in data set [1] of 7.2 µM. Besides, the Ratio IC50 in the data set filed under Oryctolagus cuniculus was 0.12.
